According to US20230012936A1, “COMBINATION THERAPY USING GLUCAGON AND GLP-1 CO-AGONISTS FOR THE TREATMENT OF OBESITY” (MEDIMMUNE, LLC, priority 2019, published 2023):

Assays:
Type in all cases: in vivo, human
[1] = Body weight, Phase 2a study
Description: Body weight was measured during the screening period, at the start of the run—in period (Day −28), and prior to breakfast on Day 1 (predose) and Day 29. The subject should have taken off their shoes and remove bulky clothing. Calibrated scales were used.
The change and percent change in body weight from baseline (Day 1) to Day 29 (kg) were determined. The proportion of subjects achieving>5% body weight loss from baseline (Day 1) to Day 29 was also determined.

[2] = Immunogenicity: anti-drug antibody (ADA) response to cotadutide
Description: (§1) Blood samples were collected to evaluate anti-drug antibody (ADA) response to cotadutide. Serum samples were evaluated for ADA using a validated immunoassay. Adverse events (AEs) and serious adverse events (SAEs) were collected from the time of informed consent throughout the treatment period and including the follow-up period. AEs and SAEs were graded by severity and relationship to investigational product and SAEs were assessed for relationship to protocol procedures.
Development of ADA and titres (in any subjects testing positive) were assessed to evaluate the immunogenicity profile of cotadutide titrated up to a dose of 300 μg. No subjects in the placebo group and 3 subjects (12.0%) in the cotadutide group tested positive for ADA at baseline. None of these subjects who tested positive at baseline were ADA positive post-baseline. One subject (4.2%) in the placebo group and 3 subjects (12.5%) in the cotadutide group were ADA positive post-baseline.

[3] = tested on: overweight/obese subjects with Type 2 Diabetes Mellitus (T2DM); test: Hemoglobin A1c (HbA1c), Phase 2a study
Description: The change in hemoglobin A1c (glycated hemoglobin; HbA1c) from baseline to Day 28 was assessed.

[4] = tested on: overweight/obese subjects with Type 2 Diabetes Mellitus (T2DM); test: Pancreatic and incretin hormone profiles during the MMTT
Description: Subjects were admitted to the unit on Day −2 and on Day 27. On Day −1 and on Day 28, following a minimum 10 hour fast, a blood sample for glucose metabolism panel (glucose, insulin, C-peptide, glucagon, and active GLP-1) was taken immediately prior to the subject drinking a standardized mixed meal (t=“0 minutes”). The subject then consumed a can of Ensure Plus, which is a nutritional supplement containing the components of fat, carbohydrate, and protein that make up a standard mixed-meal tolerance test (MMTT). After the meal, timed, serial blood samples were obtained for measurement of glucose and parameters related to glucose metabolism (with no additional food intake during this time). The MMTT was performed on Day-1 and Day 28.
Blood samples for the glucose metabolism panel were drawn at t=“0 minutes” (before meal) and at 15, 30, 45, 60, 90, 120, 180, and 240 minutes (±5 minutes) after consumption of the standardized meal. Additional sampling for glucagon, insulin, C-peptide, and glucose was taken at 6, 8, 12, and 24 hours (±30 minutes) post-administration (t=“0 minutes”) of the standardized meal on Day −1 and 28.
The change and percent change from baseline (Day-1) to the end of the 28 days of treatment (Day 28) in glucose AUC0-4 h were determined as measured by the MMTT. In addition, the change from baseline (Day −1) to Day 28 in active GLP-1, glucagon, insulin, and C-peptide AUC0-4 h were also measured by MMTT.
The changes in insulin and C-peptide AUC004h from baseline to Day 28 were assessed. At baseline, the mean insulin AUC0-4 h was higher in the cotadutide group compared with the placebo group (91.768 vs 78.472 hr·mU/L, respectively). There was no meaningful difference from baseline in LS mean insulin AUC0-4 h at Day 28 between the cotadutide and placebo groups (−0.08 and 2.78 hr·mU/L, respectively; LS mean difference: −2.86 hr·mU/L; p=0.7760). At baseline, the mean C-peptide AUC0-4 h was similar in the cotadutide and placebo groups (11.278 vs 10.605 hr. μg/L, respectively). There was no meaningful difference from baseline in LS mean C-peptide AUC0-4 h at Day 28 between the cotadutide and placebo groups (0.32 and −0.29 hr. μg/L, respectively (LS mean difference: […]; p=0.4345).

[5] = Pharmacokinetics of cotadutide in plasma (LC-MS/MS)
Description: The Cmax and the corresponding tmax were identified from the observed data. Log-linear regression of the terminal phase yielded the terminal rate constant (λz). The area under the plasma concentration time-curve during the dosing interval (AUCτ) was calculated by the log-linear trapezoidal rule. The area under the curve to infinity (AUC0-inf) was calculated as the sum of AUC(o-t) and Ct/z, where Ct is the observed plasma concentration obtained from the log-linear regression analysis of the last quantifiable time point and z is the terminal phase rate constant. Clearance (CL/F) was determined by dose/AUC0-inf, and the terminal half-life (t1/2) was calculated as 0.693/λz.

[6] = tested on: overweight/obese subjects with Type 2 Diabetes Mellitus (T2DM); test: Fasting plasma glucose (FPG), Phase 2a study
Description: The change in fasting plasma glucose (FPG) from baseline to Day 28 was assessed.

[7] = tested on: overweight/obese subjects with Type 2 Diabetes Mellitus (T2DM); test: Fasting free fatty acid (FFA) levels; conditions: Day 28 (300 μg); vs placebo
Description: The changes in fasting free fatty acid (FFA) from baseline to the end of each dose level were assessed. Fasting FFA changes from baseline to Day 7 (100 μg), Day 14 (200 μg), or Day 28 (300 μg) were similar between treatment groups (LS mean difference at Day 28: −0.04 mEq/L; p=0.5322).

[8] = tested on: overweight/obese subjects with Type 2 Diabetes Mellitus (T2DM); test: 24-hour glucose urine excretion; conditions: Day 28
Description: Changes in 24-hour glucose urine excretion from baseline to Day 28 were assessed. At baseline, subjects in the cotadutide group had less urine glucose excretion compared with subjects in the placebo group (4552.85 vs 9107.06 mg/24 hr, respectively).

[9] = Safety: adverse events, laboratory values, vital signs, ECG
Description: as §1

CCCCCCCCCCCCCCCC(=O)N[C@@H](CCC(=O)NCCCC[C@H](NC(=O)[C@H](CC(=O)O)NC(=O)[C@H](CO)NC(=O)[C@@H](NC(=O)[C@H](Cc1ccccc1)NC(=O)[C@@H](NC(=O)CNC(=O)[C@H](CCC(N)=O)NC(=O)[C@H](CO)NC(=O)[C@@H](N)Cc1c[nH]cn1)[C@@H](C)O)[C@@H](C)O)C(=O)N[C@@H](CO)C(=O)N[C@@H](CCC(=O)O)C(=O)N[C@@H](Cc1ccc(O)cc1)C(=O)N[C@@H](CC(C)C)C(=O)N[C@@H](CC(=O)O)C(=O)N[C@@H](CO)C(=O)N[C@@H](CCC(=O)O)C(=O)N[C@@H](CCCNC(=N)N)C(=O)N[C@@H](C)C(=O)N[C@@H](CCCNC(=N)N)C(=O)N[C@@H](CC(=O)O)C(=O)N[C@@H](Cc1ccccc1)C(=O)N[C@H](C(=O)N[C@@H](C)C(=O)N[C@@H](Cc1c[nH]c2ccccc12)C(=O)N[C@@H](CC(C)C)C(=O)N[C@@H](CCC(=O)O)C(=O)N[C@@H](C)C(=O)NCC(=O)NCC(=O)O)C(C)C)C(=O)O [Cotadutide]
Body weight, Day 29 change from baseline, mean ([1]; baseline (Day 1) to Day 29): -3.06 kg | Body weight, Day 29 change from baseline, median ([1]; baseline (Day 1) to Day 29): -2.85 kg | Body weight, Day 29 percent change from baseline, mean ([1]; baseline (Day 1) to Day 29): −3.30% | Body weight, Day 29 percent change from baseline, median ([1]; baseline (Day 1) to Day 29): −3.14% | Proportion of subjects achieving >5% body weight loss ([1]; baseline to Day 29, 3 subjects): 12.5% | Body weight, Day 29 change from baseline, LS mean ([1]; baseline to Day 29, ANCOVA): -3.16 kg | Body weight, Day 29 percent change from baseline, LS mean ([1]; baseline to Day 29, ANCOVA): −3.33% | Body weight, Day 29 change from baseline, LS mean difference ([1]; baseline to Day 29, vs placebo): -2.13 kg | Body weight, Day 29 percent change from baseline, LS mean difference ([1]; baseline to Day 29, vs placebo): −2.26% | Subjects ADA positive post-baseline ([2]; 3 subjects): 12.5% | Subjects ADA positive at Day 29 ([2]; Day 29, 1 subject): 4.2% | Subjects ADA positive at the End of Study ([2]; End of Study, 2 subjects): 8.3% | Treatment boosted ADA (baseline titre boosted 4-fold or higher) ([2]; during drug administration): No subjects had a treatment boosted ADA | Hemoglobin A1c, Day 28, mean ([3]; Day 28, ITT): 6.75% | Hemoglobin A1c, Day 28, median ([3]; Day 28, ITT): 6.65% | Hemoglobin A1c, change from baseline, mean ([3]; baseline to Day 28): −1.04% | Hemoglobin A1c, change from baseline, median ([3]; baseline to Day 28): −1.10% | Hemoglobin A1c, change from baseline, LS mean ([3]; baseline to Day 28, ANCOVA): −1.03% | Hemoglobin A1c, change from baseline, LS mean difference ([3]; baseline to Day 28, vs placebo): −0.58% | C-peptide AUC0-4 h, change from baseline, LS mean ([4]; Day 28): 0.32 µg·h/L | GLP-1 (active form) AUC0-4 h, change from baseline, LS mean ([4]; Day 28): -131.67 ng·h/L | Glucagon AUC0-4 h, change from baseline, LS mean ([4]; Day 28): -12.52 ng·h/L | Insulin AUC0-4 h, change from baseline, LS mean ([4]; Day 28): −0.08 hr·mU/L | GLP-1 (active form) AUC0-4 h, change from baseline, LS mean difference ([4]; Day 28, vs placebo): -0.73 ng·h/L | Glucagon AUC0-4 h, change from baseline, LS mean difference ([4]; Day 28, vs placebo): 11.3 ng·h/L | Insulin AUC0-4 h, change from baseline, LS mean difference ([4]; Day 28, vs placebo): −2.86 hr·mU/L | Effect of dapagliflozin on cotadutide clinical PK ([5]; cotadutide 100 to 300 μg/day): not affected by the presence of dapagliflozin | half-life ([5]; human, plasma, subcutaneous, 300 ug, across doses 100, 200 and 300 μg, read-out: Cotadutide half-life t1/2): 8.8 to 9.1 h | Fasting plasma glucose, Day 28 (LOCF), mean ([6]; Day 28 (LOCF), ITT): 115.33 mg/dL | Fasting plasma glucose, Day 28 (LOCF), median ([6]; Day 28 (LOCF), ITT): 106.32 mg/dL | Fasting plasma glucose, change from baseline (LOCF), mean ([6]; baseline to Day 28): -34.24 mg/dL | Fasting plasma glucose, change from baseline (LOCF), median ([6]; baseline to Day 28): -43.25 mg/dL | Fasting plasma glucose, change from baseline (LOCF), LS mean ([6]; baseline to Day 28, ANCOVA): -34.15 mg/dL | Fasting plasma glucose, change from baseline (LOCF), LS mean difference ([6]; baseline to Day 28, vs placebo): -37.73 mg/dL | Fasting FFA change from baseline, LS mean difference [7]: −0.04 mEq/L | 24-hour glucose urine excretion, change from baseline, LS mean [8]: −643.46 mg/24h | 24-hour glucose urine excretion, change from baseline, LS mean difference ([8]; vs placebo): 921.26 mg/24h | Incidence of treatment-emergent adverse events (TEAEs) ([9]; As-treated, 28 days): 52.0% | Subjects with a TEAE that led to discontinuation of investigational product ([9]; abdominal pain and vomiting): Two | Incidence of investigational product-related TEAEs ([9]; as judged by the investigator): 40.0% | Heart rate ([9]; compared with the placebo group): increased heart rate was observed | Blood pressure (BP) ([9]; in vivo): No meaningful changes | Hematology, serum chemistry, or urinalysis laboratory values ([9]; in vivo): no clinically meaningful trends | Severity of TEAEs ([9]; in vivo): mild (Grade 1) or moderate (Grade 2) | Electrocardiogram (ECG) parameters ([9]; with the exception of heart rate): no clinically meaningful trends
